The nature of data set [1]: triterpenic acid content of basic aqueous solution (trisodium phosphate extraction, Example 1). Conditions: water with trisodium phosphate, extracted at 120° C. and >2 bar, cooled to room temperature, filtered through 0.22 μm filter. It counts as physicochemical. The procedure:
Dried annual shoots of mistletoe were extracted with n-heptane at 120° C. and >2 bar pressure. The precipitate obtained upon cooling of the extraction agent was composed of more than 60% oleanolic acid and more than 3% betulinic acid. The triterpenic acid-rich powder thus obtained was extracted with water in the presence of trisodium phosphate at 120° C. and >2 bar pressure to produce a supersaturated basic solution.
The basic triterpenoid-rich solution, cooled to room temperature and filtered through a 0.22 μm filter, contained more than 80 μg/mL oleanolic acid and more than 8 μg/mL betulinic acid. The basic solution thus prepared was then adjusted to pH 7.4 using an aqueous phosphoric acid solution, in the presence of 1.6 μg/mL polysaccharides which had been obtained from mistletoe berries. The extent of dilution and the solvent quantities were selected in such a way that the salt concentration of the neutralized triterpenic acid-rich solution was between 5 and 140 mM.

Data set [2] can be described thus: triterpenic acid content of basic aqueous solution with cyclodextrins (Example 4). It counts as physicochemical. Conditions: water with trisodium phosphate (10 mM) and 2 mg/mL cyclodextrins, 120° C. and >2 bar. As to the method:
The triterpenoid-rich powder described in Example 1 was extracted with water in the presence of trisodium phosphate (10 mM) and 2 mg/mL cyclodextrins at 120° C. and >2 bar.
The basic triterpenic acid-rich solution contained more than 100 μg/mL oleanolic acid and more than 8 μg/mL betulinic acid. The basic solution thus prepared was then adjusted to pH 7.4 using an aqueous phosphoric acid solution. The extent of dilution and the solvent quantities were selected in such away that the salt concentration of the neutralized triterpenic acid-rich solution was between 5 and 140 mM.

For the compound `CC1(C)CC[C@]2(C(=O)O)CC[C@]3(C)C(=CC[C@@H]4[C@@]5(C)CC[C@H](O)C(C)(C)[C@@H]5CC[C@]43C)[C@@H]2C1` [oleanolic acid], the “content in basic triterpenoid-rich solution” value in data set [1] is given as “more than 80 μg/mL”. The “content in basic triterpenic acid-rich solution” value in data set [2] is on record as “more than 100 μg/mL”.

The values are drawn from patent US20100104669A1, “Method for preparing an aqueous solution containing triterpenic acid, aqueous solution containing triterpenic acid, and use thereof” (priority 2008, published 2010).
